Paper PMC7553777, “Structural basis for the reaction cycle of DASS dicarboxylate transporters” (eLife, 2020)
Read-outs that look alike come from different tables or passages of the source. Values belong to the compound of their own block, whether it stands above or below them.

Legend:
[1] = target: T1, LaINDY (Lactobacillus acidophilus, UniProt Q5FKK5); experiment: thermostability, SEC peak height after […] h at […] °C; type: binding
T1 construct: gene LBA0912

[2] = target: T1, LaINDY; experiment: whole-cell radiolabelled uptake and exchange in E. coli BL21(DE3); type: cell-based; settings: 1 μM 3H-succinate, labelled compound, pH 7.5, 30 °C, 10 mM NaCl
[3] = target: LaINDY, succinate/dicarboxylate transporter from Lactobacillus acidophilus (Lactobacillus acidophilus); experiment: SEC-MALS; Shodex KW803 column, buffer with 0.05% DDM, three angle static light scattering, refractive index and UV detectors; detergent-purified LaINDY
[4] = target: LaINDY, succinate/dicarboxylate transporter from Lactobacillus acidophilus (Lactobacillus acidophilus); experiment: cryo-EM structure
[5] = target: LaINDY, succinate/dicarboxylate transporter from Lactobacillus acidophilus (Lactobacillus acidophilus); experiment: crystal structure

T1 sequence (Q5FKK5 1-488 limits assumed): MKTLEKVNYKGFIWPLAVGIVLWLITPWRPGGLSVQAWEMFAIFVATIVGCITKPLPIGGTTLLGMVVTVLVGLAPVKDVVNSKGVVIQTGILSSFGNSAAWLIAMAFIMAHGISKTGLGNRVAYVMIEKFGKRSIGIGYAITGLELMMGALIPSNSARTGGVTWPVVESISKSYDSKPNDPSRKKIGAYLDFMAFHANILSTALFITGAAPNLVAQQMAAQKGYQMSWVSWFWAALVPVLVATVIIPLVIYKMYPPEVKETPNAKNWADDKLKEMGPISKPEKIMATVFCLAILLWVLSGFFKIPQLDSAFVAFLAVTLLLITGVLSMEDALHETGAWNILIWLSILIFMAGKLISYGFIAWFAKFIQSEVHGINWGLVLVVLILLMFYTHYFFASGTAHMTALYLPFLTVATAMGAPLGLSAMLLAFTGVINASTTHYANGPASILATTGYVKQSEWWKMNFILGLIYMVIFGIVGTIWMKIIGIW

Compound: O=C(O)CC(O)C(=O)O (racemic) [malate]
thermostability, SEC peak height after 2 h at 42 °C [1]: Following identification of malate and αKG as stabilizers

Compound: O=C(O)CCC(=O)O [succinate]
whole-cell radiolabelled uptake and exchange in E. coli BL21(DE3) [2]: E. coli transformed with LaINDY accumulated radioactive succinate from an external solution

Compound: O=C(O)CCC(=O)C(=O)O [αKG]
thermostability, SEC peak height after 2 h at 42 °C ([1]; pH 8.0, 150 mM NaCl, 0.15% DM, 100 mM compound as printed): Following identification of malate and αKG as stabilizers

stoichiometry N [3]: 2
stoichiometry N [4]: 2
stoichiometry N [5]: 2
Compound: LaINDY, succinate/dicarboxylate transporter from Lactobacillus acidophilus (natural protein)
